Experimental data: article PMC8079065, “Design, synthesis and in vitro and in vivo biological evaluation of flurbiprofen amides as new fatty acid amide hydrolase/cyclooxygenase-2 dual inhibitory potential analgesic agents” (Journal of Enzyme Inhibition and Medicinal Chemistry, 2021)
Like-named read-outs stand apart in the source and are kept apart here.

Tests used:
FAAH [1] = target: T1, FAAH (Rattus norvegicus, UniProt P97612); settings: shown for comparative purposes, cited from earlier work; for IC50: rat brain, read-out: IC50 for inhibition of rat brain AEA hydrolysis
T1 construct: rat or mouse brain homogenates as the enzyme source; from tissue; host or cells: rat brain (minus cerebellum), Wistar or Sprague-Dawley, washed membrane homogenate
T1 sequence (P97612 1-579): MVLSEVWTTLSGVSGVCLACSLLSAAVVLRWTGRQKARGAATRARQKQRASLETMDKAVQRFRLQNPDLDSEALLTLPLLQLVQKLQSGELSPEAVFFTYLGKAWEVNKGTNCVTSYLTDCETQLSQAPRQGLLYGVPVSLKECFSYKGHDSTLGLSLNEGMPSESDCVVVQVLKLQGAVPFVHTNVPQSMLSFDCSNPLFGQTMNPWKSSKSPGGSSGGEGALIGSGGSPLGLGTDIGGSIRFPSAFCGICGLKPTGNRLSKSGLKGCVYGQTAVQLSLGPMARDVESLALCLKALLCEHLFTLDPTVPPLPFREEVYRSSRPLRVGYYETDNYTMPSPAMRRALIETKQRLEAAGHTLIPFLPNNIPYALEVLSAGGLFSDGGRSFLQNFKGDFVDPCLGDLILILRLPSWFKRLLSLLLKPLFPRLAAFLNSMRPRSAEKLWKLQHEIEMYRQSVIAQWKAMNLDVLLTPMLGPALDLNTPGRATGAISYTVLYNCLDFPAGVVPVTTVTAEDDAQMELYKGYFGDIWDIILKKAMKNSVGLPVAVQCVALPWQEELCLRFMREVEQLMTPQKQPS

FAAH [2] = settings: cited from earlier work
FAAH [3] = target: T1, FAAH; experiment: FAAH assay: [3H]AEA hydrolysis by rat brain homogenates; type: biochemical; settings: for IC50: 0.5 µM [3H]AEA, rat brain homogenates; for increase in FAAH inhibitory activity versus Flu-AM1: IC50 compared with Flu-AM1
[4] = derived from pI50, read-out: IC50 for inhibition of rat brain AEA hydrolysis
[5] = means ± s.e.m., n = 3–4, read-out: pI50 (-logIC50) for inhibition of rat brain AEA hydrolysis (converted)

| Compound | IC50 (FAAH [1]) | pI50 (-logIC50) for inhibition of rat brain AEA hydrolysis (FAAH [1]) | IC50 (FAAH [3]; [4]) | IC50 (FAAH [3]; [5]) | increase in FAAH inhibitory activity versus Flu-AM1 (FAAH [3]; rat brain) | further results |
| --- | --- | --- | --- | --- | --- | --- |
| Cc1cccnc1NC(=O)C(C)c1ccc(-c2ccccc2)c(F)c1 (stereo not shown) [Flu-AM1] | 440 nM | 6.36 ± 0.02 |  |  |  | potency against FAAH versus flurbiprofen (FAAH [2]): about 60 fold |
| CC(C(=O)Nc1ncccc1C(F)(F)F)c1ccc(-c2ccccc2)c(F)c1 (stereo not shown) [Flu-AM3, 2–(2-Fluoro-(1,1'-biphenyl)-4-yl)-N-(3-(trifluoromethyl)pyridin-2-yl)propanamide] |  |  | 110 nM | 110 nM | about 4 fold |  |
| CC(C(=O)Nc1ncccc1Cl)c1ccc(-c2ccccc2)c(F)c1 (stereo not shown) [Flu-AM6, N-(3-Chloropyridin-2-yl)-2-(2-fluoro-(1,1'-biphenyl)-4-yl)propanamide] |  |  | 19 nM | 19.1 nM | approximately 20 fold | FAAH potency versus flurbiprofen (FAAH [3]; rat brain, IC50 compared with flurbiprofen): more than three orders of magnitude greater than flurbiprofen |
| CC(C(=O)O)c1ccc(-c2ccccc2)c(F)c1 (stereo not shown) [Flurbiprofen] | 29000 nM | 4.53 ± 0.02 |  |  |  |  |
| Cc1cccnc1NC(=O)C(C)c1ccc(CC(C)C)cc1 (stereo not shown) [Ibu-AM5] |  |  |  |  |  | potency against FAAH versus ibuprofen (FAAH [2]): 2-3 orders of magnitude |
